Reference: ChEMBL document CHEMBL4715719, “Synthesis and biological properties of polyamine modified flavonoids as hepatocellular carcinoma inhibitors” (Eur J Med Chem, 2016)
Active and inactive are the calls of the source. The calls are words filed in the database; no cut-off is given here.

How the values were obtained:
[1] = test system: H22; test: Potentiation of DFMO-induced antitumor activity against mouse H22 cells implanted in Kunming mouse assessed as reduction in tumor weight at 10 mg/kg, iv administered for 7 consecutive days starting from day 8 post inoculation cotreated with DFMO at 200 mg/kg and measured after 16 days (reference value: 1.31 +/- 0.33 g); type: functional; settings: time 8 day
[2] = Antiproliferative activity against mouse H22 cells assessed as inhibition of cell proliferation measured after 48 hrs in presence of 800 uM aspirin by MTT assay; type: functional, cell-based
[3] = test system: HepG2; test: Antimigratory activity against human HepG2 cells assessed as inhibition of cell migration measured after 48 hrs by transwell assay; type: functional, cell-based; settings: dose 50-70 µM
[4] = test system: Mus musculus; test: Upregulation of phosphorylated JNK in Kunming mouse implanted with mouse H22 cells assessed as activation of p53 measured after 48 hrs by immunofluorescence analysis; type: functional; settings: dose 10-30 µM
[5] = test system: HepG2; test: Induction of mitochondrial membrane potential loss in human HepG2 cells after 48 hrs by Rh123 staining based assay; type: functional, cell-based; settings: dose 50-70 µM
[6] = test system: HepG2; test: Induction of apoptosis in human HepG2 cells assessed as activation of caspase 3 at 50 to 70 uM measured after 48 hrs by immunofluorescence assay; type: functional, cell-based; settings: dose 50-70 µM
[7] = test system: H22; test: (§1) Potentiation of aspirin-induced antimetastatic activity against mouse H22 cells implanted in Kunming mouse assessed as number of metastatic focus at 10 mg/kg, iv administered for 7 consecutive days starting from day 11 post inoculation cotreated with aspirin at 10 mg/kg and measured after 18 days (reference value: 43.6 +/- 13); type: functional; settings: time 8 day
[8] = test system: HepG2; test: Induction of apoptosis in human HepG2 cells assessed as activation of caspase 9 at 50 to 70 uM measured after 48 hrs by immunofluorescence assay; type: functional, cell-based; settings: dose 50-70 µM
[9] = test system: H22; test: Potentiation of DFMO-induced antimetastatic activity against mouse H22 cells implanted in Kunming mouse assessed as number of metastatic focus at 10 mg/kg, iv administered for 7 consecutive days starting from day 11 post inoculation cotreated with DFMO at 200 mg/kg and measured after 18 days (reference value: 35.1 +/- 12); type: functional; settings: time 8 day
[10] = test system: H22; test: as §1, with “inhibition” for “number”, “metastasis” for “metastatic focus”, “relative to control” for “(reference value: 43.6 +/- 13)”; type: functional; settings: 192 h, time 8 day
[11] = test system: HepG2; test: Antiproliferative activity against human HepG2 cells assessed as inhibition of cell proliferation measured after 48 hrs by MTT assay; type: functional, cell-based; settings: HepG2, 48 h
[12] = test system: HepG2; test: Induction of apoptosis in human HepG2 cells assessed as activation of caspase 8 at 50 to 70 uM measured after 48 hrs by immunofluorescence assay; type: functional, cell-based; settings: dose 50-70 µM
[13] = test system: H22; test: Antitumor activity against mouse H22 cells implanted in Kunming mouse assessed as tumor growth inhibition at 10 mg/kg, iv administered for 7 consecutive days starting from day 8 post inoculation and measured after 16 days relative to control; type: functional; settings: 192 h, time 8 day, read-out: TGI
[14] = test system: Mus musculus; test: Upregulation of phosphorylated JNK in Kunming mouse implanted with mouse H22 cells assessed as activation of p53 measured after 48 hrs in presence of aspirin by immunofluorescence analysis; type: functional; settings: dose 10-30 µM
[15] = Cytotoxicity against human QSG7701 cells assessed as inhibition of cell proliferation at 100 uM measured after 48 hrs by MTT assay relative to control; type: cell-based

In the case of `Cl.Cl.NCCCNCC(=O)NCc1cccc2c(=O)cc(-c3cccc4ccccc34)oc12`, the Activity [1] is reported as 1.22 g, the IC50 [2] is reported as 21.1 µM and the inhibition [3] is reported as “Dose-dependent effect”. For the same compound, the Activity [4] was “Dose-dependent effect”, the Activity [5] was “Dose-dependent effect” and the Activity [6] was “Active”. The Activity [7] was 23, the Activity [8] was “inactive” and the Activity [9] was 29.3. The inhibition in vivo at 10 mg/kg [10] was 59.9%, the IC50 [11] was 65 µM and the Activity [12] was “inactive”. For the same compound, the inhibition in vivo at 10 mg/kg [13] was 39.2%, the Activity [14] was “Active” and the inhibition at 48 h, 100 µM [15] was 41.8%.
